Reference: PubChem BioAssay (NCI)
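Cultured in 96-well plates, cells were exposed to test compound for 48 hours across five concentrations. The concentration for full growth arrest is given as TGI.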

What was measured:
Test in all cases: inhibition of tumour cell growth, NCI panel, 48 h
786-0 renal = system: 786-0 renal
A549 NSCLC = system: A549 NSCLC
CCRF-CEM leukemia = system: CCRF-CEM leukemia
COLO 205 colon = system: COLO 205 colon
EKVX NSCLC = system: EKVX NSCLC
HCT-15 colon = system: HCT-15 colon
LOX IMVI melanoma = system: LOX IMVI melanoma
MDA-MB-231 breast = system: MDA-MB-231 breast
MDA-MB-435 = system: MDA-MB-435
OVCAR-5 ovarian = system: OVCAR-5 ovarian
SK-MEL-28 melanoma = system: SK-MEL-28 melanoma

Structure (SMILES)	TGI (786-0 renal)	TGI (A549 NSCLC)	TGI (CCRF-CEM leukemia)	TGI (COLO 205 colon)	TGI (EKVX NSCLC)	TGI (HCT-15 colon)	TGI (LOX IMVI melanoma)	TGI (MDA-MB-231 breast)	TGI (MDA-MB-435)	TGI (OVCAR-5 ovarian)	TGI (SK-MEL-28 melanoma)
O=S(=O)(O)C(CO)c1ccccc1 (stereo unspecified) (tested in a mixture with another compound)	> 100 µM	> 100 µM	> 100 µM	> 100 µM	> 100 µM	> 100 µM	> 100 µM	> 100 µM	> 100 µM	> 100 µM	> 100 µM
C=C(C(=O)OCC)C(=O)OCC	> 100 µM	> 100 µM	> 100 µM	> 100 µM	> 100 µM	> 100 µM	> 100 µM	> 100 µM	> 100 µM	> 100 µM	> 100 µM
O=C1OC(C2Cc3ccc4ccccc4c3C2=O)c2ccccc21 (stereo unspecified)	> 100 µM	> 100 µM	> 100 µM	> 100 µM	> 100 µM	> 100 µM	> 100 µM	> 100 µM	> 100 µM	> 100 µM	> 100 µM
Oc1cc(Cl)cc2cccnc12	> 54.9 µM	> 100 µM	1.95 µM	26.1 µM	> 30.1 µM	> 100 µM	28 µM	39.7 µM	> 77.6 µM	> 100 µM	> 100 µM
S=c1c2cn[nH]c2nc2scc(-c3ccc(Cl)cc3)n12	29.4 µM	30.5 µM	50.9 µM	65.3 µM	49.1 µM	26.1 µM	23.3 µM	> 100 µM	15.7 µM	29.4 µM	46.6 µM
COc1ccc(-c2nc(SCC(=O)NNC(=S)Nc3ccccc3)[nH]c2-c2ccc(OC)cc2)cc1	60.7 µM	> 100 µM	> 100 µM	30.4 µM	75.9 µM	52 µM	37.9 µM	95.4 µM	46.7 µM	49 µM	66.8 µM
